# Patent US20220409620A1, “REDUCING IMMUNOGENICITY TO PEGLOTICASE” (Horizon Pharma Rheumatology LLC, priority 2016, published 2022)
# Test system: adult patients with uncontrolled gout
# Assay: Serum uric acid (sUA) levels and sUA responder rate, open-label study of pegloticase with MTX (MIRROR OL)
# Assay type: in vivo, human
# Experimental: The primary objective is to estimate the response rate during Month 6 (Weeks 20, 22, and 24), as measured by the sustained normalization of serum uric acid (SUA) to <6 mg/dL for at least 80% of the time during Month 6 in subjects receiving KXX with MTX.
# The primary efficacy outcome endpoint is the sustained normalization of SUA to <6 mg/dL for at least 80% of the time during month 6 (weeks 20, 22, and 24) in subjects receiving KXX with MTX. […] Participants who achieve this endpoint were classified as “responders.” Serum uric acid (SUA) responders may also be defined as participants achieving and maintaining SUA <6 mg/dL for at least 80% of the time during Month 6 (Weeks 20, 22, and 24).
# Blood samples may be collected prior to each pegloticase infusion for measurement of SUA levels using the Beckman Coulter AU System Uric Acid procedure. Participants were declared “non-responders” if there were SUA measures >6 mg/dL at 2 consecutive study visits beginning with the week 2 visit. […] This assumption and subsequent discontinuation of pegloticase was consistent with the protocol of large phase III randomized controlled trials and the product label. A formal stopping rule was 2 occasions of SUA levels of greater than 6 mg/dL.
# Clinical Chemistry—Blood samples were collected prior to each pegloticase infusion for measurement of SUA levels (primary efficacy parameter) using the Beckman Coulter AU System Uric Acid procedure. In this procedure uric acid is converted to hydrogen peroxide. Hydrogen peroxide reacts with reagent to produce a chromophore which is read bichromatically at 660/800 nm. The amount of dye formed is proportional to the uric acid concentration in the sample.
# Serum samples for measurement of SUA levels were collected at the Screening Visit, the Week −4 Visit (prior to the first dose of MTX), and the Week −2 Visit during the MTX Run-in Period; within 48 hours prior to each pegloticase infusion and after the end of each pegloticase infusion prior to discharge from the site during the Pegloticase+IMM Period; at the non-infusion Week 52/End of Study/Early Termination Visits and at the Post Treatment 3 and 6 Month Follow-up Visits. Additional serum samples for SUA levels were collected at optional non-infusion (Frequent Sampling) Visits at Weeks 1 and 7. […] Subjects with SUA level >6 mg/dL at 2 consecutive visits beginning at Week 2 visit discontinued treatment, completed the End of Pegloticase Infusion Visit procedures within 2 weeks and continued the subject visits according to the protocol (without treatment).
# Efficacy analyses were performed using the modified intention-to-treat (mITT) population, defined as all enrolled subjects who received ≥1 dose of pegloticase. The proportion of Month 6 responders was summarized, along with a 95% confidence interval for the proportion. The proportion of Month 3 and overall (Months 3 and 6 combined) responders was analyzed similarly.
# A subject was declared a non-responder if the subject had SUA level >6 mg/dL at 2 consecutive study visits beginning with the Week 2 Visit. In addition, a subject who withdraws from study treatment for any reason after the first dose of pegloticase in the KXX+MTX Period and prior to Month 6 (for the primary endpoint) or Month 3 (for the secondary endpoint) was considered a non-responder if SUA values were not collected at the planned time points.
# Patients were administered oral MTX (15 mg/week) and folate (1 mg/day) 4 weeks prior to the first pegloticase infusion (Day 1) and throughout the pegloticase treatment period. Blood was drawn prior to each infusion to measure sUA level, monitor clinical parameters, and examine for ADA development. All patients followed typical IR prophylaxis protocols (fexofenadine one day before and the morning of each infusion and acetaminophen and IV corticosteroid the morning of each infusion).
# [1] = Month 6 sUA Responders, Week 48-Post-Infusion, n=3
# [2] = Month 6 sUA Responders, Week 48-Pre-Infusion, n=2
# [3] = Month 6 sUA Responders, Week 50-Post-Infusion, n=3
# [4] = Month 6 sUA Responders, Week 50-Pre-Infusion, n=2
# [5] = Month 6 sUA Responders, Week 52/ET, n=2
# [6] = Week 2 - Post-Infusion, mITT Population
# [7] = Week 2 - Pre-Infusion, mITT Population
# [8] = Week 4 - Post-Infusion, mITT Population
# [9] = Week 4 - Pre-Infusion, mITT Population
# [10] = Week 6 - Post-Infusion, mITT Population
# [11] = Week 6 - Pre-Infusion, mITT Population
substance,measurement,setting,value
pegloticase,"Serum Uric Acid, Change from Baseline, Mean (SD)",[1],−10.33 (4.922) mg/dL
same,"Serum Uric Acid, Change from Baseline, Median",[1],-9.80 mg/dL
same,"Serum Uric Acid, Observed, Mean (SD)",[1],1.60 (2.252) mg/dL
same,"Serum Uric Acid, Observed, Median",[1],0.30 mg/dL
same,"sUA <6 mg/dL, n (%)",[1],3 (100%)
same,"Serum Uric Acid, Change from Baseline, Mean (SD)",[2],−12.65 (4.031) mg/dL
same,"Serum Uric Acid, Change from Baseline, Median",[2],-12.65 mg/dL
same,"Serum Uric Acid, Observed, Mean (SD)",[2],0.30 (0.000) mg/dL
same,"Serum Uric Acid, Observed, Median",[2],0.30 mg/dL
same,"sUA <6 mg/dL, n (%)",[2],2 (100%)
same,"Serum Uric Acid, Change from Baseline, Mean (SD)",[3],−10.57 (4.598) mg/dL
same,"Serum Uric Acid, Change from Baseline, Median",[3],-9.80 mg/dL
same,"Serum Uric Acid, Observed, Mean (SD)",[3],1.37 (1.848) mg/dL
same,"Serum Uric Acid, Observed, Median",[3],0.30 mg/dL
same,"sUA <6 mg/dL, n (%)",[3],3 (100%)
same,"Serum Uric Acid, Change from Baseline, Mean (SD)",[4],−12.65 (4.031) mg/dL
same,"Serum Uric Acid, Change from Baseline, Median",[4],-12.65 mg/dL
same,"Serum Uric Acid, Observed, Mean (SD)",[4],0.30 (0.000) mg/dL
same,"Serum Uric Acid, Observed, Median",[4],0.30 mg/dL
same,"sUA <6 mg/dL, n (%)",[4],2 (100%)
same,"Serum Uric Acid, Change from Baseline, Mean (SD)",[5],−12.65 (4.031) mg/dL
same,"Serum Uric Acid, Change from Baseline, Median",[5],-12.65 mg/dL
same,"Serum Uric Acid, Observed, Mean (SD)",[5],0.30 (0.000) mg/dL
same,"Serum Uric Acid, Observed, Median",[5],0.30 mg/dL
same,"sUA <6 mg/dL, n (%)",[5],2 (100%)
same,"Serum Uric Acid, Change from Baseline, Mean (SD)","Week 1, mITT Population",−7.28 (1.556) mg/dL
same,"Serum Uric Acid, Change from Baseline, Median","Week 1, mITT Population",-7.75 mg/dL
same,"Serum Uric Acid, Observed, Mean (SD)","Week 1, mITT Population",0.30 (0.000) mg/dL
same,"Serum Uric Acid, Observed, Median","Week 1, mITT Population",0.30 mg/dL
same,"sUA <6 mg/dL, n (%)","Week 1, mITT Population",6 (100%)
same,"Serum Uric Acid, Change from Baseline, Mean (SD)",[6],−8.86 (2.486) mg/dL
same,"Serum Uric Acid, Change from Baseline, Median",[6],-8.70 mg/dL
same,"Serum Uric Acid, Observed, Mean (SD)",[6],0.30 (0.000) mg/dL
same,"Serum Uric Acid, Observed, Median",[6],0.30 mg/dL
same,"sUA <6 mg/dL, n (%)",[6],14 (100%)
same,"Serum Uric Acid, Change from Baseline, Mean (SD)",[7],−7.90 (2.878) mg/dL
same,"Serum Uric Acid, Change from Baseline, Median",[7],-8.70 mg/dL
same,"Serum Uric Acid, Observed, Mean (SD)",[7],1.26 (2.163) mg/dL
same,"Serum Uric Acid, Observed, Median",[7],0.30 mg/dL
same,"sUA <6 mg/dL, n (%)",[7],13 (92.9%)
same,"Serum Uric Acid, Change from Baseline, Mean (SD)",[8],−8.92 (2.577) mg/dL
same,"Serum Uric Acid, Change from Baseline, Median",[8],-8.80 mg/dL
same,"Serum Uric Acid, Observed, Mean (SD)",[8],0.30 (0.000) mg/dL
same,"Serum Uric Acid, Observed, Median",[8],0.30 mg/dL
same,"sUA <6 mg/dL, n (%)",[8],13 (100%)
same,"Serum Uric Acid, Change from Baseline, Mean (SD)",[9],−7.54 (3.768) mg/dL
same,"Serum Uric Acid, Change from Baseline, Median",[9],-8.00 mg/dL
same,"Serum Uric Acid, Observed, Mean (SD)",[9],1.61 (2.637) mg/dL
same,"Serum Uric Acid, Observed, Median",[9],0.30 mg/dL
same,"sUA <6 mg/dL, n (%)",[9],12 (85.7%)
same,"Serum Uric Acid, Change from Baseline, Mean (SD)",[10],−8.98 (2.679) mg/dL
same,"Serum Uric Acid, Change from Baseline, Median",[10],-8.95 mg/dL
same,"Serum Uric Acid, Observed, Mean (SD)",[10],0.30 (0.000) mg/dL
same,"Serum Uric Acid, Observed, Median",[10],0.30 mg/dL
same,"sUA <6 mg/dL, n (%)",[10],12 (100%)
same,"Serum Uric Acid, Change from Baseline, Mean (SD)",[11],−8.31 (3.538) mg/dL
same,"Serum Uric Acid, Change from Baseline, Median",[11],-8.80 mg/dL
same,"Serum Uric Acid, Observed, Mean (SD)",[11],0.91 (2.191) mg/dL
same,"Serum Uric Acid, Observed, Median",[11],0.30 mg/dL
same,"sUA <6 mg/dL, n (%)",[11],12 (92.3%)
same,"Serum Uric Acid, Change from Baseline, Mean (SD)","Week 7, mITT Population",−8.90 (4.755) mg/dL
same,"Serum Uric Acid, Change from Baseline, Median","Week 7, mITT Population",-7.85 mg/dL
